This is an account of results in patent publication US20030147957A1, “Dual release formulation comprising levodopa ethyl ester and a decarboxylase inhibitor in immediate release layer with levodopa ethyl ester and a decarboxylase inhibitor in a controlled release core” (priority 2001, published 2003).

The nature of this series: Solubility versus pH at ~22-24° C. Format: physicochemical. To be noted: 23 °C. From the text: However, carbidopa and LDEE, examples of two active materials in the composition of the present invention, have different chemical and physical properties and contrasting solubility characteristics especially in acid conditions, i.e., in the gastrointestinal tract (see Table 1).

[1] abbreviates: aqueous buffer, pH 5.0, ~22-24° C.
Where [2] appears, read: simulated gastric fluid, pH 1.0, ~22-24° C.

Molecules are shown by their SMILES. In brackets after ≈: the same amount, converted by molar mass.

For orientation: solubility means the concentration that dissolves in the medium under given conditions. A low value points to little dissolved substance. For `N[C@@H](Cc1ccc(O)c(O)c1)C(=O)O` [Levodopa, levodopa], the solubility was 4960 µg/mL (≈ 25.2 mM) under setting [1] and 5380 µg/mL (≈ 27.3 mM) under setting [2].

In the case of `C[C@@](Cc1ccc(O)c(O)c1)(NN)C(=O)O` [Carbidopa, carbidopa], the solubility reads like this: under setting [1], 1660 µg/mL (≈ 7.34 mM); under setting [2], 21400 µg/mL (≈ 94.6 mM).
